Results as given in patent US20240368156A1, “2-AZABICYCLO[2.2.1]HEPTANE KRAS INHIBITORS” (INCYTE CORPORATION, priority 2023, published 2024).

Experiments:
KRAS G12D = KRAS G12D (Homo sapiens, UniProt P01116, G12D); test: GDP-GTP exchange assay (bodipy-GDP/GppNHp, SOS1), KRAS G12D; type: biochemical; settings: 2.5 nM bodipy-loaded KRAS G12D, 4 h pre-incubation, 2 h reaction with GppNHp and SOS1; for certain compounds the most potent isomer is quoted; read-out: KRAS_G12D exchange assay IC50
Procedure: (§1) The inhibitor potency of the exemplified compounds was determined in a fluorescence based guanine nucleotide exchange assay, which measures the exchange of bodipy-GDP (fluorescently labeled GDP) for GppNHp (Non-hydrolyzable GTP analog) to generate the active state of KRAS in the presence of SOS1 (guanine nucleotide exchange factor). Inhibitors were serially diluted in DMSO and a volume of 0.1 μL was transferred to the wells of a black low volume 384-well plate. 5 µL/well volume of bodipy-loaded KRAS G12D diluted to 2.5 nM in assay buffer (25 mM Hepes pH 7.5, 50 mM NaCl, 10 mM MgCl2 and 0.01% Brij-35) was added to the plate and pre-incubated with inhibitor for 4 h at r.t. Appropriate controls (enzyme with no inhibitor or with a G12D inhibitor) were included on the plate. The exchange was initiated by the addition of a 5 μL/well volume containing 1 mM GppNHp and 300 nM SOS1 in assay buffer. The 10 μL/well reaction concentration of the bodipy-loaded KRAS G12D, GppNHp, and SOS1 were 2.5 nM, 500 μM, and 150 nM, respectively. The reaction plates were incubated at r.t. for 2 h, a time estimated for complete GDP-GTP exchange in the absence of inhibitor. For the KRAS G12V mutant, similar guanine nucleotide exchange assays were used with 2.5 nM as final concentration for the bodipy loaded KRAS proteins and 3 h incubation after adding GppNHp-SOS1 mixture. A cyclic peptide described to selectively bind G12D mutant (Sakamoto et al., BBRC 484.3 (2017), 605-611) or internal compounds with confirmed binding were used as positive controls in the assay plates. Fluorescence intensities were measured on a PheraStar plate reader instrument (BMG Labtech) with excitation at 485 nm and emission at 520 nm.
(§2) Either GraphPad prism or Genedata Screener SmartFit was used to analyze the data. The IC50 values were derived by fitting the data to a four parameter logistic equation producing a sigmoidal dose-response curve with a variable Hill coefficient.
(§3) The symbol “†” indicates IC50≤100 nM, “††” indicates IC50>100 nM but ≤1 μM; and “†††” indicates IC50 is >1 μM but ≤5 μM, “††††” indicates IC50 is >5 µM but ≤10 μM. “NA” indicates IC50 not available.

KRAS G12V = KRAS G12V (Homo sapiens, UniProt P01116, G12V); test: GDP-GTP exchange assay (bodipy-GDP/GppNHp, SOS1), KRAS G12V; type: biochemical; settings: 2.5 nM bodipy-loaded KRAS G12V, 3 h incubation after adding GppNHp-SOS1; for certain compounds the most potent isomer is quoted; read-out: KRAS_G12V exchange assay IC50
Procedure: as §1, §2, §3

Chain of KRAS G12V (P01116 1-188 isoform P01116-2 G12V): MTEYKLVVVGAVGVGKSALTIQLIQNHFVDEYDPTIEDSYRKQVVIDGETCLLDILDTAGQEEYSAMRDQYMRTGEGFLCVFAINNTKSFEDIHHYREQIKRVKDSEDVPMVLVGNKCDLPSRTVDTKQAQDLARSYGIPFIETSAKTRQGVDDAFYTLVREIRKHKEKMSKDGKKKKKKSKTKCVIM
Chain of KRAS G12D (P01116 1-188 isoform P01116-2 G12D): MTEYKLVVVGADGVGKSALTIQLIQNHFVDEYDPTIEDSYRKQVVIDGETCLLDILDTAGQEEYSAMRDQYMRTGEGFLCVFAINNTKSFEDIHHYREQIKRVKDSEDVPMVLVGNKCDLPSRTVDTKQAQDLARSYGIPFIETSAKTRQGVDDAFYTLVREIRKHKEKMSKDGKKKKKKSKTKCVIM

| Structure (SMILES) | IC50 (KRAS G12D) | IC50 (KRAS G12V) |
| --- | --- | --- |
| C[C@@H](O)c1nc2c(F)c(-c3cccc(Cl)c3Cl)c(CCC#N)cc2c2c1cc([C@H]1[C@H]3C[C@H](C[C@@H]3OC3CC3)N1C(=O)C1(F)CC1)n2[C@H]1[C@H]2CN[C@@H]1C2 (single isomer, unassigned) [Example 38] | ≤ 100 nM | ≤ 100 nM |
| CN(C)C(=O)c1ccc(-c2nc3c(F)c(-c4cccc(Cl)c4Cl)c(CCC#N)cc3c3c2cc([C@H]2[C@@H]4CC[C@@H](C4)N2C(=O)C2CC2)n3[C@H]2[C@H]3CN[C@@H]2C3)cn1 [Example 12, 5-(1-((1R,4R,5S)-2-azabicyclo[2.1.1]hexan-5-yl)-8-(2-cyanoethyl)-2-((1S,3R,4R)-2-(cyclopropanecarbonyl)-2-azabicyclo[2.2.1]heptan-3-yl)-7-(2,3-dichlorophenyl)-6-fluoro-1H-pyrrolo[3,2-c]quinolin-4-yl)-N,N-dimethylpicolinamide] | ≤ 100 nM | ≤ 100 nM |
| Cc1nc2c(F)c(-c3cccc(Cl)c3Cl)c(CCC#N)cc2c2c1cc([C@H]1[C@H]3C[C@H](C[C@@H]3Oc3ccncc3)N1C(=O)C1CC1)n2[C@H]1[C@H]2CN[C@@H]1C2 (atropisomer, axis not shown) [Example 31, 3-((R)-1-((1R,4R,5S)-2-azabicyclo[2.1.1]hexan-5-yl)-2-((1R,3R,4R,5S)-2-(cyclopropanecarbonyl)-5-(pyridin-4-yloxy)-2-azabicyclo[2.2.1]heptan-3-yl)-7-(2,3-dichlorophenyl)-6-fluoro-4-methyl-1H-pyrrolo[3,2-c]quinolin-8-yl)propanenitrile] | ≤ 100 nM | ≤ 100 nM |
| Cc1nc2c(F)c(-c3cccc(Cl)c3Cl)c(CCC#N)cc2c2c1cc([C@H]1[C@H]3C[C@H](C[C@@H]3Oc3ccccn3)N1C(=O)C1CC1)n2C1[C@H]2CN[C@@H]1C2 (stereo partly drawn) [Example 28, 3-(1-((1R,4R)-2-azabicyclo[2.1.1]hexan-5-yl)-2-((1R,3R,4R,5S)-2-(cyclopropanecarbonyl)-5-(pyridin-2-yloxy)-2-azabicyclo[2.2.1]heptan-3-yl)-7-(2,3-dichlorophenyl)-6-fluoro-4-methyl-1H-pyrrolo[3,2-c]quinolin-8-yl)propanenitrile] | ≤ 100 nM | ≤ 100 nM |
| COC(=O)N1[C@@H]2C[C@@H]([C@@H](OC(F)(F)F)C2)[C@@H]1c1cc2c(C)nc3c(F)c(-c4cccc(Cl)c4Cl)c(CCC#N)cc3c2n1[C@H]1[C@H]2CN[C@@H]1C2 (atropisomer, axis not shown; (Ra)) [Example 40, Methyl (1R,3R,4R,5S)-3-((Ra)-1-((1R,4R,5S)-2-azabicyclo[2.1.1]hexan-5-yl)-8-(2-cyanoethyl)-7-(2,3-dichlorophenyl)-6-fluoro-4-methyl-1H-pyrrolo[3,2-c]quinolin-2-yl)-5-(trifluoromethoxy)-2-azabicyclo[2.2.1]heptane-2-carboxylate] | ≤ 100 nM | ≤ 100 nM |
| C[C@@H](O)c1nc2c(F)c(-c3cccc(Cl)c3Cl)c(CCC#N)cc2c2c1cc([C@H]1[C@H]3C[C@H](C[C@@H]3F)N1C(=O)C1(F)CC1)n2[C@H]1[C@H]2CN[C@@H]1C2 (atropisomer, axis not shown) [Example 32, 3-((R)-1-((1R,4R,5S)-2-azabicyclo[2.1.1]hexan-5-yl)-7-(2,3-dichlorophenyl)-6-fluoro-2-((1R,3R,4R,5S)-5-fluoro-2-(1-fluorocyclopropane-1-carbonyl)-2-azabicyclo[2.2.1]heptan-3-yl)-4-((R)-1-hydroxyethyl)-1H-pyrrolo[3,2-c]quinolin-8-yl)propanenitrile] | ≤ 100 nM | ≤ 100 nM |
| Cc1nc2c(F)c(-c3cccc(Cl)c3Cl)c(CCC#N)cc2c2c1cc([C@H]1[C@H]3C[C@H](C[C@H]3F)N1C(=O)C1CC1)n2C1[C@H]2CN[C@@H]1C2 (stereo partly drawn) [Example 17, 3-(1-((1R,4R)-2-azabicyclo[2.1.1]hexan-5-yl)-2-((1R,3R,4R,5R)-2-(cyclopropanecarbonyl)-5-fluoro-2-azabicyclo[2.2.1]heptan-3-yl)-7-(2,3-dichlorophenyl)-6-fluoro-4-methyl-1H-pyrrolo[3,2-c]quinolin-8-yl)propanenitrile] | ≤ 100 nM | ≤ 100 nM |
| Cc1nc2c(F)c(-c3cccc(Cl)c3Cl)c(CCC#N)cc2c2c1cc([C@H]1[C@@H]3C[C@@H]([C@@H]4C[C@@H]43)N1C(=O)C1CC1)n2C1C2CNC1C2 (stereo partly drawn) [Example 26, 3-(1-(2-azabicyclo[2.1.1]hexan-5-yl)-2-((1R,2S,4R,5S,7R)-6-(cyclopropanecarbonyl)-6-azatricyclo[3.2.1.02,4]octan-7-yl)-7-(2,3-dichlorophenyl)-6-fluoro-4-methyl-1H-pyrrolo[3,2-c]quinolin-8-yl)propanenitrile] | 5000 to 10000 nM | 5000 to 10000 nM |
| Cc1nc2c(F)c(-c3cccc(Cl)c3Cl)c(CCC#N)cc2c2c1cc([C@H]1[C@H]3C[C@H](C[C@@H]3C(F)F)N1C(=O)C1CC1)n2[C@H]1[C@H]2CN[C@@H]1C2 (atropisomer, axis not shown; (Ra)) [Example 9, 3-((Ra)-1-((1R,4R,5S)-2-Azabicyclo[2.1.1]hexan-5-yl)-2-((1R,3R,4S,5S)-2-(cyclopropanecarbonyl)-5-(difluoromethyl)-2-azabicyclo[2.2.1]heptan-3-yl)-7-(2,3-dichlorophenyl)-6-fluoro-4-methyl-1H-pyrrolo[3,2-c]quinolin-8-yl)propanenitrile] | ≤ 100 nM | ≤ 100 nM |
| Cc1nc2c(F)c(-c3cccc(Cl)c3Cl)c(CCC#N)cc2c2c1cc([C@H]1[C@H]3C[C@H](C[C@@H]3OCc3ccccc3)N1C(=O)C1CC1)n2[C@H]1[C@H]2CN[C@@H]1C2 (atropisomer, axis not shown; (Ra)) [Example 6, 3-((Ra)-2-((1R,3R,4R,5S)-5-(Benzyloxy)-2-(cyclopropanecarbonyl)-2-azabicyclo[2.2.1]heptan-3-yl)-1-((1R,4R,5S)-2-azabicyclo[2.1.1]hexan-5-yl)-7-(2,3-dichlorophenyl)-6-fluoro-4-methyl-1H-pyrrolo[3,2-c]quinolin-8-yl)propanenitrile] | ≤ 100 nM | ≤ 100 nM |
| Cc1nc2c(F)c(-c3cccc(Cl)c3Cl)c(CCC#N)cc2c2c1cc([C@H]1[C@H]3C[C@H](C[C@H]3C)N1C(=O)C1CC1)n2C1[C@H]2CN[C@@H]1C2 (stereo partly drawn) [Example 18, 3-(1-((1R,4R)-2-azabicyclo[2.1.1]hexan-5-yl)-2-((1S,3R,4S,5R)-2-(cyclopropanecarbonyl)-5-methyl-2-azabicyclo[2.2.1]heptan-3-yl)-7-(2,3-dichlorophenyl)-6-fluoro-4-methyl-1H-pyrrolo[3,2-c]quinolin-8-yl)propanenitrile] | ≤ 100 nM | ≤ 100 nM |
| Cc1nc2c(F)c(-c3cccc(Cl)c3Cl)c(CCC#N)cc2c2c1cc([C@H]1[C@H]3C[C@H](C[C@@H]3OC(F)F)N1C(=O)C1CC1)n2C1[C@H]2CN[C@@H]1C2 (stereo partly drawn) [Example 30, 3-((7R)-1-((1R,4R)-2-azabicyclo[2.1.1]hexan-5-yl)-2-((1R,3R,4R,5S)-2-(cyclopropanecarbonyl)-5-(difluoromethoxy)-2-azabicyclo[2.2.1]heptan-3-yl)-7-(2,3-dichlorophenyl)-6-fluoro-4-methyl-1H-pyrrolo[3,2-c]quinolin-8-yl)propanenitrile] | ≤ 100 nM | ≤ 100 nM |
| Cc1nc2c(F)c(-c3cccc(Cl)c3Cl)c(CCC#N)cc2c2c1cc([C@H]1[C@H]3C[C@H](C[C@@H]3O)N1C(=O)C1CC1)n2C1[C@H]2CN[C@@H]1C2 (stereo partly drawn) [Example 16, 3-(1-((1R,4R)-2-azabicyclo[2.1.1]hexan-5-yl)-2-((1R,3R,4R,5S)-2-(cyclopropanecarbonyl)-5-hydroxy-2-azabicyclo[2.2.1]heptan-3-yl)-7-(2,3-dichlorophenyl)-6-fluoro-4-methyl-1H-pyrrolo[3,2-c]quinolin-8-yl)propanenitrile] | ≤ 100 nM | ≤ 100 nM |
